How the values were obtained:
[1] = target: Myosin-IIIb (Homo sapiens, UniProt Q8WXR4); test: Binding affinity to recombinant full-length N-terminal His-FLAG-GST-tagged MYO3B (unknown origin) (1 to 362 residues) expressed in baculovirus infected Sf9 insect cells incubated for 1 hr by TR-FRET assay
[2] = target: Homeodomain-interacting protein kinase 3 (Homo sapiens, UniProt Q9H422); test: Binding affinity to recombinant N-terminal His-FLAG-GST-tagged HIPK3 (unknown origin) (161 to 562 residues) expressed in baculovirus infected Sf9 insect cells incubated for 1 hr by TR-FRET assay
[3] = target: Ribosomal protein S6 kinase beta-1 (Homo sapiens, UniProt P23443, T412E); test: Binding affinity to recombinant human full length N-terminal GST-tagged RPS6KB1 T412E mutant expressed in baculovirus expression system using S6K2 peptide as substrate incubated for 1 hr by TR-FRET assay
[4] = target: Focal adhesion kinase 1 (Homo sapiens, UniProt Q05397); test: Binding affinity to recombinant human full length N-terminal GST-tagged PTK2 expressed in baculovirus expression system incubated for 1 hr by TR-FRET assay
[5] = target: MAP/microtubule affinity-regulating kinase 3 (Homo sapiens, UniProt P27448); test: Binding affinity to recombinant full-length N-terminal His-FLAG-GST-tagged MARK3 (unknown origin) expressed in baculovirus infected Sf9 insect cells incubated for 1 hr by TR-FRET assay
[6] = target: Fibroblast growth factor receptor 4 (Homo sapiens, UniProt P22455); test: Binding affinity to recombinant N-terminal His-FLAG-GST-tagged FGFR4 (unknown origin) (460 to 802 residues) expressed in baculovirus infected Sf9 insect cells incubated for 1 hr by TR-FRET assay
[7] = target: Serine/threonine-protein kinase PAK 5 (Homo sapiens, UniProt Q9P286); test: Binding affinity to recombinant N-terminal His-FLAG-GST-tagged PAK7 (unknown origin) (425 to 719 residues) expressed in baculovirus infected Sf9 insect cells incubated for 1 hr by TR-FRET assay
[8] = target: Mitogen-activated protein kinase 10 (Homo sapiens, UniProt P53779); test: Binding affinity to recombinant full-length N-terminal His-FLAG-GST-tagged MAPK10 (unknown origin) expressed in baculovirus infected Sf9 insect cells incubated for 1 hr by TR-FRET assay
[9] = target: Serine/threonine-protein kinase 16 (Homo sapiens, UniProt O75716); test: Binding affinity to recombinant full-length N-terminal His-FLAG-GST-tagged STK16 (unknown origin) expressed in baculovirus infected Sf9 insect cells incubated for 1 hr by TR-FRET assay
[10] = Binding affinity to recombinant human full-length N-terminal […] MKNK1 T334D mutant expressed in baculovirus expression system using RS peptide as substrate incubated for 1 hr by TR-FRET assay
[11] = target: Serine/threonine-protein kinase PLK4 (Homo sapiens, UniProt O00444); test: Binding affinity to recombinant full-length N-terminal His-FLAG-GST-tagged PLK4 (unknown origin) (1 to 836 residues) expressed in baculovirus infected Sf9 insect cells incubated for 1 hr by TR-FRET assay
[12] = target: Mitogen-activated protein kinase kinase kinase 5 (Homo sapiens, UniProt Q99683); test: Binding affinity to recombinant full-length N-terminal His-FLAG-GST-tagged MAP3K5 (unknown origin) (654 to 971 residues) expressed in baculovirus infected Sf9 insect cells incubated for 1 hr by TR-FRET assay
[13] = target: Tyrosine-protein kinase HCK (Homo sapiens, UniProt P08631); test: Binding affinity to recombinant full-length N-terminal His-FLAG-GST-tagged HCK (unknown origin) (25 to 526 residues) expressed in baculovirus infected Sf9 insect cells incubated for 1 hr by TR-FRET assay
[14] = target: Activated CDC42 kinase 1 (Homo sapiens, UniProt Q07912); test: Binding affinity to recombinant N-terminal His-FLAG-GST-tagged TNK2 (unknown origin) (110 to 476 residues) expressed in baculovirus infected Sf9 insect cells incubated for 1 hr by TR-FRET assay
[15] = target: Serine/threonine-protein kinase 38-like (Homo sapiens, UniProt Q9Y2H1); test: Binding affinity to recombinant full-length N-terminal His-FLAG-GST-tagged STK38L (unknown origin) expressed in baculovirus infected Sf9 insect cells incubated for 1 hr by TR-FRET assay
[16] = target: Mitogen-activated protein kinase 8 (Homo sapiens, UniProt P45983); test: Binding affinity to recombinant N-terminal His-FLAG-GST-tagged MAPK8 (unknown origin) (2 to 364 residues) expressed in baculovirus infected Sf9 insect cells incubated for 1 hr by TR-FRET assay
[17] = target: Serine/threonine-protein kinase BRSK1 (Homo sapiens, UniProt Q8TDC3); test: Binding affinity to recombinant full-length N-terminal His-FLAG-GST-tagged BRSK1 (unknown origin) expressed in baculovirus infected Sf9 insect cells incubated for 1 hr by TR-FRET assay
[18] = target: Serine/threonine-protein kinase SIK1 (Homo sapiens, UniProt P57059); test: Binding affinity to recombinant full-length N-terminal His-FLAG-tagged SIK1 (unknown origin) expressed in baculovirus infected Sf9 insect cells incubated for 1 hr by TR-FRET assay
[19] = target: Myotonin-protein kinase (Homo sapiens, UniProt Q09013); test: Binding affinity to recombinant full-length N-terminal His-FLAG-GST-tagged DMPK (unknown origin) expressed in baculovirus infected Sf9 insect cells incubated for 1 hr by TR-FRET assay
[20] = target: Inhibitor of nuclear factor kappa-B kinase subunit epsilon (Homo sapiens, UniProt Q14164); test: Binding affinity to recombinant full-length N-terminal His-FLAG-GST-tagged IKBKE (unknown origin) expressed in baculovirus infected Sf9 insect cells incubated for 1 hr by TR-FRET assay
[21] = target: Glycogen synthase kinase-3 beta (Homo sapiens, UniProt P49841); test: Binding affinity to recombinant full-length N-terminal His-FLAG-GST-tagged GSK3B (unknown origin) expressed in baculovirus infected Sf9 insect cells incubated for 1 hr by TR-FRET assay
[22] = target: Dual specificity tyrosine-phosphorylation-regulated kinase 1B (Homo sapiens, UniProt Q9Y463); test: Binding affinity to recombinant full-length N-terminal His-FLAG-tagged DYRK1B (unknown origin) expressed in baculovirus infected Sf9 insect cells incubated for 1 hr by TR-FRET assay
[23] = target: ALK tyrosine kinase receptor (Homo sapiens, UniProt Q9UM73); test: Binding affinity to recombinant human […] N-terminal GST-tagged ALK (1058 to 1620 residues) expressed in baculovirus expression system using Srctide as substrate incubated for 1 hr by TR-FRET assay
[24] = target: Tyrosine-protein kinase Fer (Homo sapiens, UniProt P16591); test: Binding affinity to recombinant full-length N-terminal His-FLAG-GST-tagged FER (unknown origin) expressed in baculovirus infected Sf9 insect cells incubated for 1 hr by TR-FRET assay

Chain of Mitogen-activated protein kinase 8 (P45983 whole entry, the tested form may be a part): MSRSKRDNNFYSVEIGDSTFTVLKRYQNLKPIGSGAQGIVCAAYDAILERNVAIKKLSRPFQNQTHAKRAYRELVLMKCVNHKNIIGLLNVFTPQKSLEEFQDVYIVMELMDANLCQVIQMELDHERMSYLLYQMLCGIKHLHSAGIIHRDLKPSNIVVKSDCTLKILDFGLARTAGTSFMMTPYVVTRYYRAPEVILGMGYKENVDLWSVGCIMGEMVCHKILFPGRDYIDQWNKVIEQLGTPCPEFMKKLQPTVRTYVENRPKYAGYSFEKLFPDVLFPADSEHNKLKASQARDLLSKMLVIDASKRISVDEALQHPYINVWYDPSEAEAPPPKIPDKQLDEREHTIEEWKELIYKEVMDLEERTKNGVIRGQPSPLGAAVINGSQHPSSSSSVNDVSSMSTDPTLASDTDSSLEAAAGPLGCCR
Chain of MAP/microtubule affinity-regulating kinase 3 (P27448 whole entry, the tested form may be a part): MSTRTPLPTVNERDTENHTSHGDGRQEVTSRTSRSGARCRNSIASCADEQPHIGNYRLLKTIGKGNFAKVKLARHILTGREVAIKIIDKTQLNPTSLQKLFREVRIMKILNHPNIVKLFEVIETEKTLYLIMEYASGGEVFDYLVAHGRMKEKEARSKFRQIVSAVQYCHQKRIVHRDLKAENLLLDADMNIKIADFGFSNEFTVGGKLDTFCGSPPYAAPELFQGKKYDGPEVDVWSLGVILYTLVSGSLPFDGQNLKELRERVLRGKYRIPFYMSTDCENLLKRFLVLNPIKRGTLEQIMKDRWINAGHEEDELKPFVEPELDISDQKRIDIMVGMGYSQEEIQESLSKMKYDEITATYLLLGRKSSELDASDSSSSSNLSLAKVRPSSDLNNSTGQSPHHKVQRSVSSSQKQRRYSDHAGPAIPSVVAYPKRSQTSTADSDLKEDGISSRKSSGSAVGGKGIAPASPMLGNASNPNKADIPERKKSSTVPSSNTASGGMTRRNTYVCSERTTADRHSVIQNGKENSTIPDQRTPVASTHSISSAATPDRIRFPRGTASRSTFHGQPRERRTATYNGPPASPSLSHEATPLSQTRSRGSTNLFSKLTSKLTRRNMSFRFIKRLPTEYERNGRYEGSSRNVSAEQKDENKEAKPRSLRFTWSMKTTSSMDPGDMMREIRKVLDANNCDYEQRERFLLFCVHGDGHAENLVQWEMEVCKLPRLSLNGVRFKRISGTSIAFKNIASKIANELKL
Chain of Activated CDC42 kinase 1 (Q07912 whole entry, the tested form may be a part): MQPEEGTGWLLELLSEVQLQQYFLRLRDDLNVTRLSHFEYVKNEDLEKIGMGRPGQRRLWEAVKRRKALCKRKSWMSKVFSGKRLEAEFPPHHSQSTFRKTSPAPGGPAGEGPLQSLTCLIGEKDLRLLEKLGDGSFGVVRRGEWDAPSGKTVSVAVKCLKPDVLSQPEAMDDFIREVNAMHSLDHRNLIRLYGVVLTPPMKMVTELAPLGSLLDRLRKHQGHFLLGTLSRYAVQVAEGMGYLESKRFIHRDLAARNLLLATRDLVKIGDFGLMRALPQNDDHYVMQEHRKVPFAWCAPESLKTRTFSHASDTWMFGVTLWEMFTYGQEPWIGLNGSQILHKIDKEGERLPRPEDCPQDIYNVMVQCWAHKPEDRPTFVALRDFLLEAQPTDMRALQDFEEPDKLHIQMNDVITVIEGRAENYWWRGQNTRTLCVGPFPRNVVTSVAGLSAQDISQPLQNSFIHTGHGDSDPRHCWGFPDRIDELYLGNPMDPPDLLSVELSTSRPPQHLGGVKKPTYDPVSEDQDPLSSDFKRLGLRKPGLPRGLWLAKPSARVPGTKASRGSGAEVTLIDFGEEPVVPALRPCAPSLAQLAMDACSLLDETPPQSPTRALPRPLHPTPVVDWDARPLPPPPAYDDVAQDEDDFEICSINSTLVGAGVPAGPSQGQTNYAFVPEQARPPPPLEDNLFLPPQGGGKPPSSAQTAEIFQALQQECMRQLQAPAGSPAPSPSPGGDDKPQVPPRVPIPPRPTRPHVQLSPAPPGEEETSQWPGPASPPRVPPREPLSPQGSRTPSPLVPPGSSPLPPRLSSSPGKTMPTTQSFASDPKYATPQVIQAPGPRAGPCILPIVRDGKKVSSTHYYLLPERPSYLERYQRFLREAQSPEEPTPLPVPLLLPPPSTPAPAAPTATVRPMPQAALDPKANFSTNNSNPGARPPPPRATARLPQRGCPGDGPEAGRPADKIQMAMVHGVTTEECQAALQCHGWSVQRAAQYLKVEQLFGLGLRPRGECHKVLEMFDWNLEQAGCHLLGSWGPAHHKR
Chain of Serine/threonine-protein kinase 16 (O75716 whole entry): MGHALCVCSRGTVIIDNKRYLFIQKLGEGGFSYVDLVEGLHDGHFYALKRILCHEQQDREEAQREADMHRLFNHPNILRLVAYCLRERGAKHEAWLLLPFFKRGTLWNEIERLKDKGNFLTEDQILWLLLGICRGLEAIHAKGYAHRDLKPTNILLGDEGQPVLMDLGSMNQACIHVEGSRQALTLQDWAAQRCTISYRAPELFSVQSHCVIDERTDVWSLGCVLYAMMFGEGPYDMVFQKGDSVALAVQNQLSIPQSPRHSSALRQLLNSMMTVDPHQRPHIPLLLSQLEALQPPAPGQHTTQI
Chain of Serine/threonine-protein kinase PAK 5 (Q9P286 whole entry, the tested form may be a part): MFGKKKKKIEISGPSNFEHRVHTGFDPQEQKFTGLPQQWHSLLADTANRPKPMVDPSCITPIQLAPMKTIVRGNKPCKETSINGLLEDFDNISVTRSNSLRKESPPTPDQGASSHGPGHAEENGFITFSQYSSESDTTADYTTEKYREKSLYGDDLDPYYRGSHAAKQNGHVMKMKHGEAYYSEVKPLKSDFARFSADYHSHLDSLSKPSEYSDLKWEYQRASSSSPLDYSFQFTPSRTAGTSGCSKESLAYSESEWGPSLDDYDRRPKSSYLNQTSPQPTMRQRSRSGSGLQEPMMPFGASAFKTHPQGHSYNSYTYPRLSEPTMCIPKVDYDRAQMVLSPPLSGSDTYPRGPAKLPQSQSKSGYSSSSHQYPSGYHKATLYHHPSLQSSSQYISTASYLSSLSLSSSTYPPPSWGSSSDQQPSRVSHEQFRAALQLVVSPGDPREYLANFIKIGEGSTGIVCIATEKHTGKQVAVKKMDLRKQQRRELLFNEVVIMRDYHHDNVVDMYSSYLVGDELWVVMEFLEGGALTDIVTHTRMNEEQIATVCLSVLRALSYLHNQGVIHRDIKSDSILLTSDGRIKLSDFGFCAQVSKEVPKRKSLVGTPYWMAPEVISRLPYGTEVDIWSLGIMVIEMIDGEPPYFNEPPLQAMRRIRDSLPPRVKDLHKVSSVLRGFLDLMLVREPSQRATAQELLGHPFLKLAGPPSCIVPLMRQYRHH
Chain of Mitogen-activated protein kinase kinase kinase 5 (Q99683 whole entry, the tested form may be a part): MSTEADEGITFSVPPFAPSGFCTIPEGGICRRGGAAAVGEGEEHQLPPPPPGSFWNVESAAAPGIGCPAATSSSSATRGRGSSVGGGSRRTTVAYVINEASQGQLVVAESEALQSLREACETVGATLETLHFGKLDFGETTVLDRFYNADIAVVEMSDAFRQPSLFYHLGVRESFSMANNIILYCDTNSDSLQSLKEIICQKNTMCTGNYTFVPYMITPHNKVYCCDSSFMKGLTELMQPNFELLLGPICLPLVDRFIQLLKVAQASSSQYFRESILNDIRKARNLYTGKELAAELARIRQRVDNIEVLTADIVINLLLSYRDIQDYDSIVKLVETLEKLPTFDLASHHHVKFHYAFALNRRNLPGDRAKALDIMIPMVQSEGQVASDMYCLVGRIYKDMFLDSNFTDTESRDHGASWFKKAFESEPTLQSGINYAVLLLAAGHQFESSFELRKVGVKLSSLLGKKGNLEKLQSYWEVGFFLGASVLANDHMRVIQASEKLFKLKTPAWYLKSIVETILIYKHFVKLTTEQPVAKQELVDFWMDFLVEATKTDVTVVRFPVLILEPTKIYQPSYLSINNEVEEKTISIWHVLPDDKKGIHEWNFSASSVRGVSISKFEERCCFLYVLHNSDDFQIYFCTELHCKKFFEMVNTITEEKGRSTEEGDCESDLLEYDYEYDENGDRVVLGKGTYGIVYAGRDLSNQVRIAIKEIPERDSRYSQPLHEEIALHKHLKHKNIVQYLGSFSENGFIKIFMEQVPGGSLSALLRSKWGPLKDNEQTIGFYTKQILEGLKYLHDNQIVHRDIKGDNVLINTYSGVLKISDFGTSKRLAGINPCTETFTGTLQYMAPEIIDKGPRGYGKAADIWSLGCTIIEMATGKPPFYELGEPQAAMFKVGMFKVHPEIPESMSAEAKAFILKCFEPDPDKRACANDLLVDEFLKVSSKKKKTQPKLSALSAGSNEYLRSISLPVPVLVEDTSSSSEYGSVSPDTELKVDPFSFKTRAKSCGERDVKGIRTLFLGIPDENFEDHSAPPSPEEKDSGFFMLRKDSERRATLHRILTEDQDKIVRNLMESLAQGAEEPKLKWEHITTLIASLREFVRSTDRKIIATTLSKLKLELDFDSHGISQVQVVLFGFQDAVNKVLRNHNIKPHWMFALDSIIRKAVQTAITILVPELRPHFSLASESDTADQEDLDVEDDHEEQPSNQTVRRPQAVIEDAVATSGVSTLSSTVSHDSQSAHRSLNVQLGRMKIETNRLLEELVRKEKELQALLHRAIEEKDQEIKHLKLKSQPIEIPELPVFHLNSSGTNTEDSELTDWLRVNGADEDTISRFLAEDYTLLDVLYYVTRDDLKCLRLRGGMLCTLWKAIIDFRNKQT
Chain of Glycogen synthase kinase-3 beta (P49841 whole entry): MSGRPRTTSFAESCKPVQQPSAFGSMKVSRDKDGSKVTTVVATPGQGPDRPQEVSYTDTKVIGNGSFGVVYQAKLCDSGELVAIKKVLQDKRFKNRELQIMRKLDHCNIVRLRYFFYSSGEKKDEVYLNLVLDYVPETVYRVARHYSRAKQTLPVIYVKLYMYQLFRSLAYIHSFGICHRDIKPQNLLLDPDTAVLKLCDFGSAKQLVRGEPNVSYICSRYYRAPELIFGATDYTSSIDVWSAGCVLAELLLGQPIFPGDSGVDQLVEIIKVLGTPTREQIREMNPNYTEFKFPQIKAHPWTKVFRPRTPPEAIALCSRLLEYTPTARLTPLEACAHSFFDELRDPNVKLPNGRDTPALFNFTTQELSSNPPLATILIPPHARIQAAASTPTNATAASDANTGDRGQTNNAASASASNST

| Compound | Kd [1] [µM] | Kd [2] [µM] | Kd [3] [µM] | Kd [4] [µM] | Kd [5] [µM] | Kd [6] [µM] | Kd [7] [µM] | Kd [8] [µM] | Kd [9] [µM] | Kd [10] [µM] | Kd [11] [µM] | Kd [12] [µM] | Kd [13] [µM] | Kd [14] [µM] | Kd [15] [µM] | Kd [16] [µM] | Kd [17] [µM] | Kd [18] [µM] | Kd [19] [µM] | Kd [20] [µM] | further results |
| --- | --- | --- | --- | --- | --- | --- | --- | --- | --- | --- | --- | --- | --- | --- | --- | --- | --- | --- | --- | --- | --- |
| CO[C@@H]1[C@H](NCCOCCOCCOCCNC(=O)CCC2=[N+]3C(=Cc4c(C)cc(C)n4[B-]3(F)F)C=C2)C[C@H]2O[C@]1(C)n1c3ccccc3c3c4c(c5c6ccccc6n2c5c31)C(=O)NC4 | 0.328 | 0.798 | 0.04 | 0.401 | 0.013 | 0.718 | 0.04 | 0.315 | 0.365 | 0.028 | 0.033 | 0.136 | 0.263 | 0.036 | 0.759 | 0.286 | 0.109 | 0.003 | 0.09 | 0.058 | Kd [21]: 0.23 µM; Kd [22]: 0.107 µM; Kd [23]: 0.23 µM; Kd [24]: 0.027 µM |
| CO[C@@H]1[C@H](N(C)CCOCCOCCOCCNC(=O)CCC2=[N+]3C(=Cc4c(C)cc(C)n4[B-]3(F)F)C=C2)C[C@H]2O[C@]1(C)n1c3ccccc3c3c4c(c5c6ccccc6n2c5c31)C(=O)NC4 | 0.294 | 1.03 | 0.013 | 0.308 | 0.006 | 1.49 | 0.053 | 0.245 | 0.11 | 0.037 | 0.02 | 0.248 | 0.28 | 0.042 | > 2 | 0.536 | 0.194 | 0.003 | 0.094 | 0.044 | Kd [21]: 0.148 µM; Kd [22]: 0.04 µM; Kd [23]: 0.172 µM; Kd [24]: 0.03 µM |

— ChEMBL document CHEMBL4321812, “Structure-based rational design of staurosporine-based fluorescent probe with broad-ranging kinase affinity for kinase panel application” (Bioorg Med Chem Lett, 2019)
